US9975878B2, “Substituted triazine BMI-1 inhibitors” (PTC Therapeutics, Inc., priority 2013, dated 2018)
pEC50: −log10 of the molar value.

system: Bmi-1 protein; test: Sandwich ELISA Assay: Bmi-1 protein level in HT-1080 cells treated with test compounds; type: cell-based
Method in brief: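 HT-1080 cells exposed to compounds (final DMSO 0.5%) for 40-48 h at 37° C, 5% CO2, then lysed. Bmi-1 quantified by sandwich ELISA (mouse anti-Bmi-1 capture, rabbit anti-Bmi-1 detection, HRP anti-rabbit, TMB), read at OD450 with OD570 reference, against recombinant GST-Bmi-1 standard curve (0-8000 pg/mL).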

SMILES	pEC50
CCc1nc2ccc(F)cc2n1-c1nc(N)nc(Nc2ccc(Br)cc2)n1 [Cpd 223, N-(4-bromophenyl)-6-(2-ethyl-6-fluoro-1H-benzimidazol-1-yl)-1,3,5-triazine-2,4-diamine]	7.00 to 8.00
CCc1nc2c(F)cc(F)cc2n1-c1nc(N)nc(Nc2ccc(Cl)cc2)n1 [Cpd 190, N-(4-chlorophenyl)-6-(2-ethyl-4,6-difluoro-1H-benzimidazol-1-yl)-1,3,5-triazine-2,4-diamine]	7.00 to 8.00
Nc1nc(Nc2ccc(Cl)cc2)nc(-n2c(C3CC3)nc3ccc(F)cc32)n1 [Cpd 178, N-(4-chlorophenyl)-6-(2-cyclopropyl-6-fluoro-1H-benzimidazol-1-yl)-1,3,5-triazine-2,4-diamine]	7.00 to 8.00
Cc1nc2ccccc2n1-c1nc(N)nc(Nc2ccc(C#N)cc2)n1 [Cpd 151, 4-{[4-amino-6-(2-methyl-1H-benzimidazol-1-yl)-1,3,5-triazin-2-yl]amino}benzonitrile]	5.52 to 7.00
Cc1nc2ccc(F)cc2n1-c1cnnc(Nc2ccc(C(F)(F)F)cc2)n1 [Cpd 126, 5-(6-fluoro-2-methyl-1H-benzimidazol-1-yl)-N-[4-(trifluoromethyl)phenyl]-1,2,4-triazin-3-amine]	5.52 to 7.00
Cc1ccc(Nc2nncc(-n3c(C)nc4ccccc43)n2)cc1 [Cpd 217, 5-(2-methyl-1H-benzimidazol-1-yl)-N-(4-methylphenyl)-1,2,4-triazin-3-amine]	8.00 to 9.00
CCc1nc2cc(F)ccc2n1-c1nc(N)nc(Nc2ccc(Cl)cc2)n1 [Cpd 175, N-(4-chlorophenyl)-6-(2-ethyl-5-fluoro-1H-benzimidazol-1-yl)-1,3,5-triazine-2,4-diamine]	5.52 to 7.00
Cc1nc2ccccc2n1-c1nnc(N)c(Nc2ccc(C(F)(F)F)cc2)n1 [Cpd 143, 3-(2-methyl-1H-benzimidazol-1-yl)-N^5-[4-(trifluoromethyl)phenyl]-1,2,4-triazine-5,6-diamine]	5.52 to 7.00
CCc1nc2ccc(F)cc2n1-c1nc(N)nc(Nc2ccc(OC(F)F)cc2)n1 [Cpd 56, N-[4-(difluoromethoxy)phenyl]-6-(2-ethyl-6-fluoro-1H-benzimidazol-1-yl)-1,3,5-triazine-2,4-diamine]	7.00 to 8.00
CCc1nc2ccc(F)cc2n1-c1nncc(Nc2ccc(C(F)(F)F)cc2)n1 [Cpd 131, 3-(2-ethyl-6-fluoro-1H-benzimidazol-1-yl)-N-[4-(trifluoromethyl)phenyl]-1,2,4-triazin-5-amine]	5.52 to 7.00
Cc1nc2ncc(F)cc2n1-c1nc(N)nc(Nc2ccc(C(F)(F)F)cc2)n1 [Cpd 24, 6-(6-fluoro-2-methyl-1H-imidazo[4,5-b]pyridin-1-yl)-N-[4-(trifluoromethyl)phenyl]-1,3,5-triazine-2,4-diamine]	5.52 to 7.00
Cc1nc2ccccc2n1-c1cnnc(Nc2ccc(OC(F)F)cc2)n1 [Cpd 202, N-[4-(difluoromethoxy)phenyl]-5-(2-methyl-1H-benzimidazol-1-yl)-1,2,4-triazin-3-amine]	5.52 to 7.00
Cc1nc2ncc(Br)cc2n1-c1nc(N)nc(Nc2ccc(C(F)(F)F)cc2)n1 [Cpd 32, 6-(6-bromo-2-methyl-1H-imidazo[4,5-b]pyridin-1-yl)-N-[4-(trifluoromethyl)phenyl]-1,3,5-triazine-2,4-diamine]	7.00 to 8.00
CCc1nc2c(F)cccc2n1-c1nc(N)nc(Nc2ccc(OC(F)F)cc2)n1 [Cpd 69, N-[4-(difluoromethoxy)phenyl]-6-(2-ethyl-4-fluoro-1H-benzimidazol-1-yl)-1,3,5-triazine-2,4-diamine]	7.00 to 8.00
CCc1nc2ccccc2n1-c1nncc(Nc2ccc(OC)cc2)n1 [Cpd 145, 3-(2-ethyl-1H-benzimidazol-1-yl)-N-(4-methoxyphenyl)-1,2,4-triazin-5-amine]	8.00 to 9.00
CCc1nc2ccccc2n1-c1nnc(N)c(Nc2ccc(C(F)(F)F)cc2)n1 [Cpd 142, 3-(2-ethyl-1H-benzimidazol-1-yl)-N^5-[4-(trifluoromethyl)phenyl]-1,2,4-triazine-5,6-diamine]	5.52 to 7.00

Results, then the compound that gave them:

pEC50	SMILES
7.00 to 8.00	COc1ccc(Nc2nc(N)nc(-n3c(C4CC4)nc4cc(F)ccc43)n2)cc1 [Cpd 191, 6-(2-cyclopropyl-5-fluoro-1H-benzimidazol-1-yl)-N-(4-methoxyphenyl)-1,3,5-triazine-2,4-diamine]
7.00 to 8.00	Cc1nc2c(F)cc(F)cc2n1-c1nc(N)nc(Nc2ccc(OC(F)F)cc2)n1 [Cpd 47, N-[4-(difluoromethoxy)phenyl]-6-(4,6-difluoro-2-methyl-1H-benzimidazol-1-yl)-1,3,5-triazine-2,4-diamine]
8.00 to 9.00	COc1ccc(Nc2cnnc(-n3c(C4CC4)nc4ccccc43)n2)cc1 [Cpd 146, 3-(2-cyclopropyl-1H-benzimidazol-1-yl)-N-(4-methoxyphenyl)-1,2,4-triazin-5-amine]
8.00 to 9.00	CCc1nc2c(F)cccc2n1-c1nc(N)nc(Nc2ccc(SC)cc2)n1 [Cpd 227, 6-(2-ethyl-4-fluoro-1H-benzimidazol-1-yl)-N-[4-(methylsulfanyl)phenyl]-1,3,5-triazine-2,4-diamine]
8.00 to 9.00	CCc1nc2ccc(F)cc2n1-c1nc(N)nc(Nc2ccc(OC)cc2)n1 [Cpd 168, 6-(2-ethyl-6-fluoro-1H-benzimidazol-1-yl)-N-(4-methoxyphenyl)-1,3,5-triazine-2,4-diamine]
7.00 to 8.00	Cc1nc2ccc(F)cc2n1-c1nc(N)nc(Nc2ccc(C(F)(F)F)cc2)n1 [Cpd 26, 6-(6-fluoro-2-methyl-1H-benzimidazol-1-yl)-N-[4-(trifluoromethyl)phenyl]-1,3,5-triazine-2,4-diamine]
5.52 to 7.00	Nc1nc(Nc2ccc(Cl)cc2)nc(-n2c(C3CC3)nc3cc(F)ccc32)n1 [Cpd 193, N-(4-chlorophenyl)-6-(2-cyclopropyl-5-fluoro-1H-benzimidazol-1-yl)-1,3,5-triazine-2,4-diamine]
5.52 to 7.00	Nc1nc(Nc2ccc(OC(F)(F)F)cc2)nc(-n2c(C3CC3)nc3ccccc32)n1 [Cpd 225, 6-(2-cyclopropyl-1H-benzimidazol-1-yl)-N-[4-(trifluoromethoxy)phenyl]-1,3,5-triazine-2,4-diamine]
7.00 to 8.00	Cc1nc2ccc(F)cc2n1-c1cnnc(Nc2ccc(OC(F)F)cc2)n1 [Cpd 136, N-[4-(difluoromethoxy)phenyl]-5-(6-fluoro-2-methyl-1H-benzimidazol-1-yl)-1,2,4-triazin-3-amine]
5.52 to 7.00	Cc1nc2cc(Cl)c(Cl)cc2n1-c1nc(N)nc(Nc2ccc(C(F)(F)F)cc2)n1 [Cpd 12, 6-(5,6-dichloro-2-methyl-1H-benzimidazol-1-yl)-N-[4-(trifluoromethyl)phenyl]-1,3,5-triazine-2,4-diamine]
5.52 to 7.00	CCc1nc2ccccc2n1-c1nc(N)nc(Nc2cccc(C)c2)n1 [Cpd 161, 6-(2-ethyl-1H-benzimidazol-1-yl)-N-(3-methylphenyl)-1,3,5-triazine-2,4-diamine]
7.00 to 8.00	Nc1nc(Nc2ccc(C(F)(F)F)cc2)nc(-n2c(C3CC3)nc3c(F)cc(F)cc32)n1 [Cpd 88, 6-(2-cyclopropyl-4,6-difluoro-1H-benzimidazol-1-yl)-N-[4-(trifluoromethyl)phenyl]-1,3,5-triazine-2,4-diamine]
8.00 to 9.00	COc1ccc(Nc2nc(N)nc(-n3c(C)nc4ccc(F)cc43)n2)cc1 [Cpd 164, 6-(6-fluoro-2-methyl-1H-benzimidazol-1-yl)-N-(4-methoxyphenyl)-1,3,5-triazine-2,4-diamine]
